From patent US9284318B2, “Protein kinase inhibitors” (Pharmascience, Inc., priority 2011, dated 2016)
pEC50, pIC50: −log10 of the molar value.

Assays:
MV4-11 cells = experiment: Human MV4-11 biphenotypic B myelomonocytic leukemia cell survival assay; type: cell-based; conditions: cell survival at 72h, Cell Titer-Glo
Method: Human MV4-11 Biphenotypic B Myelomonocytic Leukemia Cell Survival Assay
Biphenotypic B myelomonocytic leukemia MV4-11 cells (ATCC CRL-9591) were cultured in suspension at 37° C., 5% CO2 in complete medium (RPMI supplemented with 10% FBS, 1% penicillin/streptomycin). One day prior to treatment, cells per seeded in 96-well plates at 8000 cells/well in complete medium. The following day, triplicate wells were treated with compound curves of 100, 1000 or 10,000 nM starting concentration according to compound potency. Cell survival was measured 72h later by Cell Titer-Glo Luminescent Assay (Promega). Luminescence was read using a Tecan Infinite F200 microplate reader. EC50 values (50% survival in the presence of compound as compared to vehicle treated controls) were calculated from non-linear fit dose response compound curves using CambridgeSoft BioAssay software (Perkin Elmer).

[1] = target: T1, recombinant human colony stimulating factor 1 receptor (FMS) (Homo sapiens, UniProt P07333); experiment: Biochemical cFMS (CSF1R) fluorescence polarization kinase assay; conditions: 10 μM ATP, 100 μM substrate, 60 minutes
T1 construct: containing the catalytic domain (amino acids 538-910); His tag; purchased Invitrogen; host or cells: insect cells
T1 sequence (P07333 538-910): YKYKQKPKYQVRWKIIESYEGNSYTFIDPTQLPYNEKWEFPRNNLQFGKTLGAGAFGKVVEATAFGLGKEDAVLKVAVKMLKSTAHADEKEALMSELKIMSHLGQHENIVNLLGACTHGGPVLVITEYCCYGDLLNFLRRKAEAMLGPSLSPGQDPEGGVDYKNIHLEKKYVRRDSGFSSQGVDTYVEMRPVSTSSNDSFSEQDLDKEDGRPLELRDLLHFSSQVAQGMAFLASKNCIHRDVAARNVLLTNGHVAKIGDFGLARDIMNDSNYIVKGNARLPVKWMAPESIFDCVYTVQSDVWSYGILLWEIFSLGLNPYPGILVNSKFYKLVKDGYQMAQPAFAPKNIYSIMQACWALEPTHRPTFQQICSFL
Method: Biochemical cFMS (CSF1R) Assay:
Fluorescence polarization-based kinase biochemical assays were performed in 384 well-plate format using histidine tagged recombinant human colony stimulating factor 1 receptor (FMS) supplied from Invitrogen™ (containing the catalytic domain (amino acids 538-910), expressed in insect cells and activated in vitro via auto phosphorylation) and a modified protocol of the KinEASE™ FP Fluorescein Green Assay supplied from Millipore™.
Kinase reactions were performed in 384 well plate format at room temperature for 60 minutes in presence of 100 μM substrate, 10 μM ATP and variable test article concentrations. The reaction was stopped with EDTA/KinEASE™ detection reagents and the polarization measured on a Tecan 500 instrument. From the dose-response curve obtained, the IC50 was estimated using Graph pad Prisms® using a non linear fit curve.

[2] = tested on: M-NFS-60 M-CSF-dependent myeloid leukemia cells; experiment: Murine M-CSF-dependent M-NFS-60 cell survival assay; type: cell-based; conditions: Mus musculus; cell survival at 72 hours, 20 ng/ml M-CSF, Cell Titer-Glo
Method: Cellular Assays: Murine M-CSF-Dependent M-NFS-60 Cell Survival Assay
Murine M-NFS-60 M-CSF-dependent myeloid leukemia cells were purchased from ATCC (CRL-1838). Cells were routinely cultured at 37° C., 5% CO2 in complete medium (RPMI supplemented with 10% FBS, 1% penicillin/streptomycin, 50 uM beta mercaptoethanol) containing 30 ng/ml recombinant murine M-CSF (Peprotech 315-02). For survival assays, cells were transferred to depleted medium (complete medium depleted of M-CSF) for 24 hours prior to initiation of each experiment. M-CSF-starved cells were harvested and re-suspended in complete medium containing 20 ng/ml M-CSF. Cells were seeded at 25,000 cells/well in 96-well plates and incubated for 1 hour at 37° C., 5% CO2. Cells were treated with 1 uM or 10 uM compound curves in triplicate and cell survival was measured 72 hours later by Cell Titer-Glo Luminescent Assay (Promega). Luminescence was read using a Tecan Infinite F200 microplate reader. EC50 values (50% survival in the presence of compound as compared to vehicle treated controls) were calculated from non-linear fit dose response compound curves using GraphPad Prism Software.

## Nc1ncnc2c3c(n(CCCCc4ccccc4)c12)CCC3 [Compound 51]
MV4-11 cells
  pEC50: < 6.00

## CC(=O)Nc1ccc(-n2c3c(c4ncnc(N)c42)CCC3)cc1 [Compound 37]
MV4-11 cells
  pEC50: < 6.00

## Nc1ncnc2c3c(n(-c4ccc(NC(=O)Nc5cccc(C(F)(F)F)c5)c(F)c4)c12)CCC3 [Compound 63]
[1]
  pIC50: 6.00 to 7.00
[2]
  pEC50: > 7.00
MV4-11 cells
  pEC50: > 7.00

## Nc1ncnc2c3c(n(-c4ccc(NC(=O)Nc5ccccc5Cl)cc4)c12)CCC3 [Compound 36]
[1]
  pIC50: 6.00 to 7.00
[2]
  pEC50: 6.00 to 7.00
MV4-11 cells
  pEC50: < 6.00

## COc1cc(NC(=O)Nc2ccc(-n3c4c(c5ncnc(N)c53)CCC4)cc2)ccc1F [Compound 35]
[1]
  pIC50: > 7.00
[2]
  pEC50: 6.00 to 7.00
MV4-11 cells
  pEC50: > 7.00

## Nc1ncnc2c3c(n(-c4ccc(NC(=O)Nc5cc(C(F)(F)F)ccc5Cl)cc4)c12)CCC3 [Compound 69]
[1]
  pIC50: 6.00 to 7.00
[2]
  pEC50: 6.00 to 7.00
MV4-11 cells
  pEC50: > 7.00

## CCNC(=O)Nc1ccc(-n2c3c(c4ncnc(N)c42)CCC3)cc1 [Compound 9]
[1]
  pIC50: < 6.00
[2]
  pEC50: < 6.00
MV4-11 cells
  pEC50: 6.00 to 7.00

## Nc1ncnc2c3c(n(-c4ccc(NC(=O)Nc5cccc(C(F)(F)F)c5)cc4)c12)COC3 [Compound 48]
[1]
  pIC50: > 7.00
[2]
  pEC50: 6.00 to 7.00
MV4-11 cells
  pEC50: > 7.00

## COc1ccc(-n2c3c(c4ncnc(N)c42)CCC3)cc1OC [Compound 34]
MV4-11 cells
  pEC50: < 6.00

## Nc1ncnc2c3c(n(-c4ccc(NC(=O)Nc5ccccc5)cc4)c12)CCC3 [Compound 4]
[1]
  pIC50: > 7.00
[2]
  pEC50: > 7.00
MV4-11 cells
  pEC50: > 7.00

## C[C@H](NC(=O)Nc1ccc(-n2c3c(c4ncnc(N)c42)CCC3)cc1)c1ccccc1 [Compound 38]
[2]
  pEC50: 6.00 to 7.00
MV4-11 cells
  pEC50: < 6.00

## N#Cc1ccccc1NC(=O)Nc1ccc(-n2c3c(c4ncnc(N)c42)CCC3)cc1 [Compound 71]
[1]
  pIC50: < 6.00
[2]
  pEC50: < 6.00
MV4-11 cells
  pEC50: 6.00 to 7.00

## COc1cc(NC(=O)Nc2ccc(-n3c4c(c5ncnc(N)c53)CCC4)cc2)cc(C(F)(F)F)c1 [Compound 70]
MV4-11 cells
  pEC50: > 7.00

## Nc1ccc(-n2c3c(c4ncnc(N)c42)CCC3)cc1 [Compound 2]
MV4-11 cells
  pEC50: > 7.00

## Nc1ncnc2c3c(n(CCc4ccccc4)c12)CCC3 [Compound 29]
MV4-11 cells
  pEC50: < 6.00

## Nc1ncnc2c3c(n(-c4ccc5c(c4)OCO5)c12)CCC3 [Compound 5]
MV4-11 cells
  pEC50: < 6.00

## COc1ccc(NC(=O)Nc2ccc(-n3c4c(c5ncnc(N)c53)CCC4)cc2)cc1 [Compound 13]
[2]
  pEC50: > 7.00
MV4-11 cells
  pEC50: > 7.00

## Nc1ncnc2c3c(n(-c4ccc(NC(=O)Nc5ccc(Cl)cc5)cc4)c12)CCC3 [Compound 22]
[2]
  pEC50: > 7.00
MV4-11 cells
  pEC50: 6.00 to 7.00

## Nc1ncnc2c3c(n(-c4ccccc4)c12)CCC3 [Compound 49]
MV4-11 cells
  pEC50: 6.00 to 7.00

## Nc1ncnc2c3c(n(Cc4ccccc4)c12)CCC3 [Compound 15]
MV4-11 cells
  pEC50: < 6.00

## COc1ccc(-n2c3c(c4ncnc(N)c42)CCC3)cc1 [Compound 7]
MV4-11 cells
  pEC50: < 6.00

## Nc1ncnc2c3c(n(-c4ccc(NC(=O)NCc5ccc(F)cc5)cc4)c12)CCC3 [Compound 52]
[2]
  pEC50: 6.00 to 7.00
MV4-11 cells
  pEC50: > 7.00

## Nc1ncnc2c3c(n(-c4ccc(O)cc4)c12)CCC3 [Compound 26]
MV4-11 cells
  pEC50: < 6.00

## Nc1ncnc2c3c(n(-c4ccc(NC(=O)NCCc5ccc(F)cc5)cc4)c12)CCC3 [Compound 42]
[2]
  pEC50: 6.00 to 7.00
MV4-11 cells
  pEC50: > 7.00

## CC(C)(C)c1cc(NC(=O)Nc2ccc(-n3c4c(c5ncnc(N)c53)CCC4)cc2)no1 [Compound 74]
[1]
  pIC50: > 7.00
[2]
  pEC50: > 7.00

## CS(=O)(=O)Nc1ccc(-n2c3c(c4ncnc(N)c42)CCC3)cc1 [Compound 6]
MV4-11 cells
  pEC50: < 6.00

## Nc1ccc(-n2c3c(c4ncnc(N)c42)COC3)cc1 [Compound 32]
MV4-11 cells
  pEC50: 6.00 to 7.00

## Nc1ccc(-n2c3c(c4ncnc(N)c42)CCCC3)cc1 [Compound 18]
MV4-11 cells
  pEC50: 6.00 to 7.00

## Nc1ncnc2c3c(n(CCCc4ccccc4)c12)CCC3 [Compound 40]
MV4-11 cells
  pEC50: 6.00 to 7.00

## Nc1ncnc2c3c(n(-c4ccc(NC(=O)OCc5ccccc5)cc4)c12)COC3 [Compound 31]
MV4-11 cells
  pEC50: 6.00 to 7.00
